From BindingDB's records for doi:10.1021/np500198g (University of Tuebingen, 2014)

Biological target: T1, Prostaglandin G/H synthase 2 (Homo sapiens, UniProt P35354)
T1 sequence (P35354 whole entry): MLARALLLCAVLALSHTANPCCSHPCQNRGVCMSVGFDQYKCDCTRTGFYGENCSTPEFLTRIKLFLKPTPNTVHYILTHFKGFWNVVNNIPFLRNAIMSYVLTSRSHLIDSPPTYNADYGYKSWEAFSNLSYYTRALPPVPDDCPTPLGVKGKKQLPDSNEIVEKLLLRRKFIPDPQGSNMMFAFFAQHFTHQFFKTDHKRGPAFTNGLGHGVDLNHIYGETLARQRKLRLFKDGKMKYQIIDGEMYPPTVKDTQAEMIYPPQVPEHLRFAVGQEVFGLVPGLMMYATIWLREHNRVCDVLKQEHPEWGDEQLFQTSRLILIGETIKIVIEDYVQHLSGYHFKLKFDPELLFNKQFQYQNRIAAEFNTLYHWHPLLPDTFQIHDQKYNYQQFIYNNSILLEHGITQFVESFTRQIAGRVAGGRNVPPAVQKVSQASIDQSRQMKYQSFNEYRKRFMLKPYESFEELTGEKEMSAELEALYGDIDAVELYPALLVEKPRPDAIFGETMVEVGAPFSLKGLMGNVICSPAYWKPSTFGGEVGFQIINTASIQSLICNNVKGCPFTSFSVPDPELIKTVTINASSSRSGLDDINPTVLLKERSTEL
Test: Inhibition of human recombinant COX-2 using arachidonic acid as substrate preincubated for 5 mins followed by substrate addition measured after 5 mins by HPLC analysis

SMILES: CC(C)=CCC[C@H](C(=O)O)[C@@H]1CC[C@]2(C)C3=C(CC[C@@]12C)[C@@]1(C)CC[C@@H](O)C(C)(C)[C@@H]1CC3
- IC50: > 10 µM
